# From patent publication US11603355B2, “Charged ion channel blockers and methods for use” (Nocion Therapeutics, Inc., priority 2019, dated 2023)
# How the values were obtained:
# NaV1.7 = molecular target: T1, NaV1.7 (Homo sapiens, UniProt Q15858); assay: Manual patch clamp, internal block of NaV1.7 current; format: cell-based; conditions: compound in internal solution, HEK293 cells, read-out: Nav1.7 Intracellular Inhibition; for inhibition at 10 µM: % inhibition at 10 μM test concentration; for inhibition at 3 µM: % inhibition at 3 μM test concentration
# T1 construct: expressed in transfected cells; host or cells: HEK293 (tetracycline-inducible)
# T1 sequence (Q15858 whole entry): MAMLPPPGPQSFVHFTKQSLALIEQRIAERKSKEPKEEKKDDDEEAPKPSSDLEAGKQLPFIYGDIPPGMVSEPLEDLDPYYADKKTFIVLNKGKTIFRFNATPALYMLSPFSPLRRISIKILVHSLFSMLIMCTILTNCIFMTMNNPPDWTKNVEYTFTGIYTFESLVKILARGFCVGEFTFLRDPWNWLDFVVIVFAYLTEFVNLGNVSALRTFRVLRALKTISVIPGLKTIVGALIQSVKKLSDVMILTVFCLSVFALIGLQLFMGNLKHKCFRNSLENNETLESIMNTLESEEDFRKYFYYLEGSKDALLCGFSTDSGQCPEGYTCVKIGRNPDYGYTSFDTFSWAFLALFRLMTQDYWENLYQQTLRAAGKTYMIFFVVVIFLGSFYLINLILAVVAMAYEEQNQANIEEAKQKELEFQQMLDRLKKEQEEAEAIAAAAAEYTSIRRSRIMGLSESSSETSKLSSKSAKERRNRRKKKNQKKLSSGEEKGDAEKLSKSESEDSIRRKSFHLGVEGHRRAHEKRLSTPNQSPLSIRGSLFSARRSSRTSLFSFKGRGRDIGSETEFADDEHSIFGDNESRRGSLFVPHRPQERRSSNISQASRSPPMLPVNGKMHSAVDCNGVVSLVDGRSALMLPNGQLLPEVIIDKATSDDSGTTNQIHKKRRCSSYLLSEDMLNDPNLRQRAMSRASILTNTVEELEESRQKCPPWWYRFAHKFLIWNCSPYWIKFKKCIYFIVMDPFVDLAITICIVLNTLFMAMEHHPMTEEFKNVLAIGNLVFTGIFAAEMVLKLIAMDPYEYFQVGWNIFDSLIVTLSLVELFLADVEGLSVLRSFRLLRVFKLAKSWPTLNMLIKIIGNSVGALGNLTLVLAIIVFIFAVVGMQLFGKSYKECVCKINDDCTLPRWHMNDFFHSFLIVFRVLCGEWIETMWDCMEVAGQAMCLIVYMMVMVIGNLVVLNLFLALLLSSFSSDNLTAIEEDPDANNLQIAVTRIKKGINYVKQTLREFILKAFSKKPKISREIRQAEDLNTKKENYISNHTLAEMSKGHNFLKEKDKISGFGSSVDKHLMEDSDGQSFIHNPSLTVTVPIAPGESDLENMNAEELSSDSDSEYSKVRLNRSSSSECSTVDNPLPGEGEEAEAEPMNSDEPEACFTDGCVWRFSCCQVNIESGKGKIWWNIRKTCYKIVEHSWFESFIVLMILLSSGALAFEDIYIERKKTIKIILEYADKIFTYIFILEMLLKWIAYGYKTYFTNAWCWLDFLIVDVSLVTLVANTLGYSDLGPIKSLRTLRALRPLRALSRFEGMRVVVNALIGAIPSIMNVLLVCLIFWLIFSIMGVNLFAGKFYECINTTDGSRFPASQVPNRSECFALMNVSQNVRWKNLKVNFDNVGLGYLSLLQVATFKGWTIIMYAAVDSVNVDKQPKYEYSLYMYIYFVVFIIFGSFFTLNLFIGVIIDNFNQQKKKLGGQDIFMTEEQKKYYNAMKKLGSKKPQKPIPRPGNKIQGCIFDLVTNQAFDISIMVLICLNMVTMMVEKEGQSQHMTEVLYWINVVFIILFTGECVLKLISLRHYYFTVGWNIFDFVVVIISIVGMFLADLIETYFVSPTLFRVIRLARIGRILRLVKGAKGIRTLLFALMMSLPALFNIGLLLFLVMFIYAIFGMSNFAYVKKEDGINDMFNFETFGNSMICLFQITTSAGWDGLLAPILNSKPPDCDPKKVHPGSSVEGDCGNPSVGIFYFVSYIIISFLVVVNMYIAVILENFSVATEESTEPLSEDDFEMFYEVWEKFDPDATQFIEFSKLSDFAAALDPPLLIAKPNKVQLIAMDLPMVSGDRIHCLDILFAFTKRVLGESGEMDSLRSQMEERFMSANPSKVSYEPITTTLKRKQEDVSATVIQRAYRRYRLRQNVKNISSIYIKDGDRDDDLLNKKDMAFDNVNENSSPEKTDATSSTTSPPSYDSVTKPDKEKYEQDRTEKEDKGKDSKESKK
# Method: Representative compounds of the invention were synthesized according to the described methods and tested for the ability to inhibit voltage-gated sodium channels.
# NaV1.7 was expressed in HEK293 cells upon induction with tetracycline. Cells were cultured in DMEM containing 10% dialyzed Fetal Bovine Serum (VWR, Radnor, Pa.), 1% Glutamax (VWR, Radnor, Pa.), 1% Penicillin-Streptomycin (VWR, Radnor, Pa.), 100 mg/L Hygromycin (Thermo Fisher Scientific, Waltham, Mass. and 5 mg/L Blasticidin (Alfa Aesar, Haverhill, Mass.). Cells were grown and maintained at 37° C. in a humidified environment containing 10% CO2 in air. Cells were detached from the culture flask for passage and harvested using 0.05% Trypsin-EDTA (Thermo Fisher Scientific, Waltham, Mass.). To induce NaV1.7, cells were induced with tetracycline (0.1-1 μg/mL, IBI Scientific, Peosta, Iowa) the day before recording and plated onto 24-well plates. Cells were washed with DPBS (VWR, Radnor, Pa.), trypsinized and then triturated five times in 10 mL of growth media to break apart cell aggregates. For one 24-well plate, 2 mL of cell suspension was mixed with 23 mL of fresh growth media and 0.1-1 μg/mL tetracycline added. 1 ml of mixed media with cells was then added to each well of a 24-well plate, with a 12 mm coverslip already placed in the bottom of the well. Cells were then incubated in 37° C. and 10% CO2 overnight.
# The intracellular solution contained the following (in mM) CsCl 135, NaCl 10, EGTA 10, HEPES 10, MgCl2 2, adjusted to pH 7.2 with CsOH. The external solution was a normal Ringer solution containing (in mM) NaCl 155, HEPES 10, glucose 10, KCl 3.5, CaCl2 1.5, MgCl2 1 adjusted to pH 7.4 with NaOH. CsCl is from Alfa Aesar, Haverhill, Mass. All other chemicals are from Sigma-Aldrich, St. Louis, Mo. In order to test the degree of internal block by test compounds the compounds were dissolved in internal solution at the indicated test concentration. […] In order to test the degree of external block by test compounds the compounds were dissolved in external solution at the indicated test concentration.
# 18-24 hours after cells were induced with tetracycline, coverslips were placed into a chamber filled with Normal Ringer solution at room temperature and the chamber placed on a microscope. Pipettes were pulled from borosilicate glass on a P97 puller (Sutter Instrument, Novato, Calif.) and polished with a MF-830 Microforge (Narishige International USA, Inc., Amityville, N.Y.) to have a resistance of 1.5-2.5 MΩ when filled with CsCl internal solution at room temperature. Healthy cells (those that are round and translucent with no visible blemishes) were chosen for seal formation. A seal was formed between the pipette and the cell, and a brief pulse of suction was used to “break in” and establish the whole-cell configuration. The membrane potential was held at −100 mV before the voltage protocol began. Only cells with series resistance between 1.5-5 MΩ were retained for analysis. The voltage protocol was as follows: Cells were held at −100 mV for 12 ms followed by a hyperpolarizing step to −105 mV for 12 ms to monitor the leak. Cells were then stepped back to −100 mV for 40 ms. Cells were then depolarized to −20 mV for 10 ms and then returned to −100 mV for 26 ms.
# Once the recording was started, the voltage protocol was run at 30 second intervals for 5 minutes to get a stable baseline. This was followed by four 30-second periods of 5 Hz stimulation of the same voltage protocol separated by 1 minute of rest which was then followed by 0.33 Hz stimulation after the last train. Currents were recorded using PatchMaster software with Heka EPC10 (HEKA Electronics, Lambrecht, Germany). Only cells with inward current amplitudes at −20 mV between 400 pA and 4 nA were accepted. In addition, cells having leak currents greater than 10% of their current amplitudes were discarded. […]
# [1] = PAMPA membrane permeability assay; format: in vitro ADME; conditions: permeability coefficient, pH 7.4 buffer, GIT lipid, 4 hours incubation
# Method: The PAMPA assay (pION, Inc., Woburn Mass.) was used to determine the ability of compounds of the invention to cross an artificial lipid membrane by passive diffusion. Test compounds were dissolved in DMSO (10 mM) and diluted 200-fold in buffer (pION Inc., pH 7.4) to provide 50 uM stock solutions. Buffer (150 μL) was added to a UV blank plate and stock solutions (150 μL) were transferred to a UV reference plate. The blank and reference spectrum were read using a spectrophotometer. Stock solutions (200 μL) were added to the donor plate of the PAMPA sandwich plate and an accept plate painted with GIT lipid (pION Inc, 5) was placed on top. Buffer (200 μL) was added to the acceptor plate and the PAMPA sandwich plate was incubated for 4 hours. Aliquots (150 μL) from the acceptor plate were added to a UV plate and read as acceptor spectrum. Aliquots (150 μL) of the donor solutions were added to a UV analysis plate and read as donor spectrum. The permeability coefficient of test compounds was calculated using PAMPA Explorer™ software (version 3.5.0.4) based on the AUC of the reference plate, the donor plate, and the acceptor plate.
# The PAMPA permeability results (10^−6 cm/s) of representative compounds are reported as “+” (<0.1 10^−6 cm/s), “++” (0.1-2.0 10^−6 cm/s), “+++” (2.0-10.010^−6 cm/s) or “++++” (>10.0 10^−6 cm/s).
Compound,inhibition at 10 µM (NaV1.7) [%],PAMPA (10^−6 cm/s) [1],inhibition at 3 µM (NaV1.7) [%]
"CC[N+](CC)(CC(=O)Nc1c(C)cccc1C)Cc1ccccc1 [Compound 1A, N-benzyl-2-((2,6-dimethylphenyl)amino)-N,N-diethyl-2-oxoethan-1-aminium bromide]",70 to 95,,
"Cc1cccc(C)c1NC(=O)C[N+](C)(C)Cc1ccccc1 [Compound 2A, N-benzyl-2-((2,6-dimethylphenyl)amino)-N,N-dimethyl-2-oxoethan-1-aminium bromide]",40 to 70,+ (“+” (<0.1 10^−6 cm/s)),
"Cc1cccc(C)c1NC(=O)C[N+]1(Cc2ccccc2)CCCC1.[Br-] [Compound 5A, 1-benzyl-1-(2-((2,6-dimethylphenyl)amino)-2-oxoethyl) pyrrolidin-1-ium bromide]",70 to 95,+ (“+” (<0.1 10^−6 cm/s)),> 90
CCC(C(=O)Nc1c(C)cccc1C)[N+]1(Cc2ccc(F)cc2)CCCCC1 (centres unmarked) [Compound 7A],70 to 95,+ (“+” (<0.1 10^−6 cm/s)),
CCC(C(=O)Nc1c(C)cccc1C)[N+]1(Cc2ccc(C#N)cc2)CCCCC1 (centres unmarked) [Compound 13A],70 to 95,+ (“+” (<0.1 10^−6 cm/s)),
CCC(C(=O)Nc1c(C)cccc1C)[N+]1(Cc2cccc(C#N)c2)CCCCC1 (centres unmarked) [Compound 14A],70 to 95,+ (“+” (<0.1 10^−6 cm/s)),
CCc1ccc(C[N+]2(C(CC)C(=O)Nc3c(C)cccc3C)CCCCC2)cc1 (centres unmarked) [Compound 19A],40 to 70,+ (“+” (<0.1 10^−6 cm/s)),
CCc1cccc(C[N+]2(C(CC)C(=O)Nc3c(C)cccc3C)CCCCC2)c1 (centres unmarked) [Compound 20A],> 95,+ (“+” (<0.1 10^−6 cm/s)),> 90
CCC(C(=O)Nc1c(C)cccc1C)[N+]1(Cc2ccc(OC)cc2)CCCCC1 (centres unmarked) [Compound 22A],70 to 95,,70 to 90
"CCC(C(=O)Nc1c(C)cccc1C)[N+]1(Cc2cccc(OC)c2)CCCCC1 (centres unmarked) [Compound 23A, 1-(1-((2,6-dimethylphenyl)amino)-1-oxobutan-2-yl)-1-(3-methoxybenzyl) piperidin-1-ium bromide]",70 to 95,+ (“+” (<0.1 10^−6 cm/s)),
CCC(C(=O)Nc1c(C)cccc1C)[N+]1(Cc2cnc(C)s2)CCCCC1 (centres unmarked) [Compound 25A],40 to 70,,
CCC(C(=O)Nc1c(C)cccc1C)[N+]1(Cc2ccsc2)CCCCC1 (centres unmarked) [Compound 26A],70 to 95,+ (“+” (<0.1 10^−6 cm/s)),
CCC(C(=O)Nc1c(C)cccc1C)[N+]1(Cc2cc(C)on2)CCCCC1 (centres unmarked) [Compound 27A],70 to 95,+ (“+” (<0.1 10^−6 cm/s)),
"CCCCN(C(=O)OC(C)(C)C)c1ccc(NC(=O)C[N+]2(Cc3ccccc3)CCCCCC2)cc1 [Compound 40A, 1-benzyl-1-(2-((4-((tert-butoxycarbonyl) (butyl)amino)phenyl)amino)-2-oxoethyl) azepan-1-ium bromide]",40 to 70,,
"CCCCNc1ccc(NC(=O)C[N+]2(Cc3ccccc3)CCCCC2)cc1.O=C([O-])O [Compound 42A, 1-benzyl-1-(2-((4-(butylamino)phenyl)amino)-2-oxoethyl) piperidin-1-ium carbonate]",,++ (“++” (0.1-2.0 10^−6 cm/s)),
"CCCCNc1cc(C)c(NC(=O)C(CC)[N+]2(Cc3ccccc3)CCCCC2)c(C)c1 (centres unmarked) [Compound 43A, 1-benzyl-1-(1-((4-(butylamino)-2,6-dimethylphenyl)amino)-1-oxobutan-2-yl) piperidin-1-ium carbonate]",70 to 95,,

# Results, then the molecule that gave them:
inhibition at 10 µM (NaV1.7) [%],PAMPA (10^−6 cm/s) [1],inhibition at 3 µM (NaV1.7) [%],Compound
70 to 95,+ (“+” (<0.1 10^−6 cm/s)),,CCC(C(=O)Nc1c(C)cccc1C)[N+]1(Cc2cccc(F)c2)CCCCC1 (centres unmarked) [Compound 8A]
70 to 95,+ (“+” (<0.1 10^−6 cm/s)),,CCC(C(=O)Nc1c(C)cccc1C)[N+]1(Cc2ccc(Cl)cc2)CCCCC1 (centres unmarked) [Compound 10A]
> 95,,,CCC(C(=O)Nc1c(C)cccc1C)[N+]1(Cc2cccc(Cl)c2)CCCCC1 (centres unmarked) [Compound 11A]
> 95,+ (“+” (<0.1 10^−6 cm/s)),,CCC(C(=O)Nc1c(C)cccc1C)[N+]1(Cc2ccccc2Cl)CCCCC1 (centres unmarked) [Compound 12A]
> 95,+ (“+” (<0.1 10^−6 cm/s)),,CCC(C(=O)Nc1c(C)cccc1C)[N+]1(Cc2ccccc2C#N)CCCCC1 (centres unmarked) [Compound 15A]
> 95,+ (“+” (<0.1 10^−6 cm/s)),,CCC(C(=O)Nc1c(C)cccc1C)[N+]1(Cc2ccc(C)cc2)CCCCC1 (centres unmarked) [Compound 16A]
> 95,+ (“+” (<0.1 10^−6 cm/s)),,CCC(C(=O)Nc1c(C)cccc1C)[N+]1(Cc2cccc(C)c2)CCCCC1 (centres unmarked) [Compound 17A]
70 to 95,+ (“+” (<0.1 10^−6 cm/s)),,CCC(C(=O)Nc1c(C)cccc1C)[N+]1(Cc2ccccc2C)CCCCC1 (centres unmarked) [Compound 18A]
> 95,+ (“+” (<0.1 10^−6 cm/s)),> 90,CCc1ccccc1C[N+]1(C(CC)C(=O)Nc2c(C)cccc2C)CCCCC1 (centres unmarked) [Compound 21A]
> 95,,> 90,"CCC(C(=O)Nc1c(C)cccc1C)[N+]1(Cc2ccccc2OC)CCCCC1 (centres unmarked) [Compound 24A, 1-(1-((2,6-dimethylphenyl)amino)-1-oxobutan-2-yl)-1-(2-methoxybenzyl) piperidin-1-ium bromide]"
40 to 70,,< 40,"CCC(C(=O)Nc1c(C)cccc1C)[N+]1(Cc2ccccc2O)CCCCC1 (centres unmarked) [Compound 28A, 1-(1-((2,6-dimethylphenyl)amino)-1-oxobutan-2-yl)-1-(2-hydroxybenzyl) piperidin-1-ium 2,2,2-trifluoroacetate]"
70 to 95,,> 90,"CCC(C(=O)Nc1c(C)cccc1C)[N+]1(Cc2cccc(O)c2)CCCCC1 (centres unmarked) [Compound 29A, 1-(1-((2,6-dimethylphenyl)amino)-1-oxobutan-2-yl)-1-(3-hydroxybenzyl) piperidin-1-ium carbonate]"
> 95,+ (“+” (<0.1 10^−6 cm/s)),> 90,"CCC(C(=O)Nc1c(C)cccc1C)[N+]1(Cc2ccccc2)CCCCCC1.[Br-] (centres unmarked) [Compound 30A, 1-benzyl-1-(1-((2,6-dimethylphenyl)amino)-1-oxobutan-2-yl) azepan-1-ium bromide]"
